The record followed here is patent publication US11541032B2, “Composition containing sumo inhibitor and application” (CHINA PHARMACEUTICAL UNIVERSITY, priority 2018, dated 2023).

Holding throughout (assay type): cell-based, Rat
For assay [1], the system named is activated HSCs (HSC-T6 cells). The assay can be described thus: RT-PCR of fibrotic-related gene Acta2 mRNA in activated HSCs. The settings on record: after administration of SP. The protocol: (§1) HSC-T6 cells, seeded and cultured in a proper density, were treated with TGF-β([…]) or OCA (5 μM) or GW40064 (5 μM) or WAY-362450 (5 μM) for 12 h before collection.
(§2) RNA solutions and kit components were prepared into a system with a total volume of 20 μl according to a system proportion required in the specification, and a program temperature was set for reverse transcription.
(§3) Stage 2: PCR reaction at 95° C. for 15 sec; for example, at 60° C. for 30 sec for 40 Cycles; and at 72° C. for 30 sec.
(§4) Specific methods were the same as those in section 2.1 in Embodiment 1.
(§5) Specific methods were the same as those in section 2.2 in Embodiment 1.

Assay [2] concerns FXR signaling pathway. The assay can be described thus: RT-PCR of FXR target gene Shp mRNA in quiescent and TGF-β-activated HSC-T6 cells. To be noted: for mRNA expression of Shp: activated HSCs, in the presence of SUMO inhibitor SP; for mRNA level of Shp: activated state (TGF-β1 incubation) HSC-T6 cells; for mRNA level of Shp / mRNA level of Shp, an FXR target gene: agonist 5 μM, 12 h; for mRNA level of Shp, an FXR target gene: quiescent HSC-T6 cells. The procedure: as §1
1) After the cells were cleaned by PBS, 800 μl of a Trizol reagent was added. After repeated blowing by a pipette, the cells were transferred into an EP tube to be subjected to still standing for 5 min at the room temperature.
2) 160 μl of chloroform was added, and violent oscillation was performed for 15 sec. After still standing for 5 min at the room temperature, 12000 g centrifugation was performed for 15 min. The sample was divided into three layers including a bottom layer being a yellow organic phase, an upper layer being a colorless water phase, and a middle layer.
3) 300 μl of the upper layer water phase was carefully transferred into a new tube. 300 μl of isopropanol was added. After uniform mixing through reversing, still standing was performed for 10 min at the room temperature. Then, 12000 g centrifugation was performed for 10 min. Supernatant was abandoned.
4) RNA precipitates were washed by 1.0 ml of precooled 75% ethanol. Then, 12000 g centrifugation was performed for 5 min. Supernatant was abandoned to obtain total RNA. Redissolution was performed by 10 μl of DEPC water. After quantification, dilution was performed to 0.5 μg/μl.
as §2
Stage 1: reverse transcription at 37° C. for 15 min.
Stage 2: denaturation at 85° C. for 5 s.
Stage 1: initial denaturation at 95° C. for 1 min.
as §3
Stage 3: dissociation curve analysis at 65 to 95° C., 0.5° C./5s.
as §4, §5

Assay [3] deals with FXR proteins. The experiment in a line: SUMOylation ELISA of FXR proteins in activated HSCs. The procedure:
as §1
After cell nuclear proteins were extracted according to specification requirements of an ELISA detection kit, primary antibodies and nuclear proteins of a cell sample were incubated for 60 min at the room temperature in a plate hole. SUMO specific detection antibodies were then supplemented and added according to the specification requirements. A color sensitizer was further added for color development. Then, absorbance at 655 nm was fast read. Relative quantitative analysis was performed.
as §4
Specific methods were the same as those in section 2.3 in Embodiment 1.
A general note: ELISA stands for enzyme-linked immunosorbent assay.

`CC(C)c1onc(-c2c(Cl)cccc2Cl)c1COc1ccc(/C=C/c2cccc(C(=O)O)c2)c(Cl)c1` [GW4064]: in assay [1], the “expression of fibrotic-related gene Acta2” value is recorded as “significantly reduced”. In assay [2], the “mRNA expression of Shp” value is reported as “significantly up-regulated”; the “mRNA level of Shp” value was “none of the FXR agonists OCA, GW4064 and WAY-362450 could significantly up-regulate”; the “mRNA level of Shp, an FXR target gene” value is “could significantly up-regulate”.
Regarding `CN[C@@H]1[C@H](O)[C@H](NC)[C@H]2O[C@@]3(O)C(=O)C[C@@H](C)O[C@H]3O[C@@H]2[C@H]1O` [SP, spectinomycin], the “SUMOylation level of FXR proteins” value in assay [3] was “could significantly reduce”.
`CC(C)OC(=O)C1=CN(C(=O)c2ccc(F)c(F)c2)CC(C)(C)c2c1[nH]c1ccccc21` [WAY-362450]: the “expression of fibrotic-related gene Acta2” value in assay [1] was “significantly reduced”. In assay [2], the “mRNA expression of Shp” value is recorded as “significantly up-regulated”; the “mRNA level of Shp” value was “none of the FXR agonists OCA, GW4064 and WAY-362450 could significantly up-regulate”; the “mRNA level of Shp, an FXR target gene” value is “could significantly up-regulate”.
Turning to ginkgolic acid [GA], the “SUMOylation level of FXR proteins” value in assay [3] was “could significantly reduce”.
